Data taken from US10039761B2, “Co-crystals and pharmaceutical compositions comprising the same” (Vertex Pharmaceuticals Incorporated, priority 2013, dated 2018).

Tests used:
[1] = test system: OD26749 primary NSCLC xenograft; assay: OD26749 primary NSCLC xenograft efficacy with whole body IR; assay type: in vivo, nude mice
Method: The in vivo efficacies of Compounds (1) and (2) in combination with whole body IR were examined in the OD26749 primary NSCLC (non-small cell lung cancer) and the OE-19 GEJ cell line xenograft models. In these studies, Compounds (1) and (2) were formulated with 16% captisol/1% PVP/1% HPMC E5 pH2.
The in vivo efficacy of Compound (1) was evaluated in the primary OD26749 NSCLC subcutaneous xenograft model. […] […] Compound (1) was administered PO (tid at 0, 3, and 7 h) at 100 mg/kg alone or with a single 2 Gy dose of whole body IR at 3.25 h. […] Compound (1) in combination with 2 Gy whole body IR induced significant tumor regression (% T/Ti of −75; P<0.01) compared to IR alone.
The efficacies of Compounds (1) and (2) in combination with whole body IR (2 Gy) were evaluated in the OD26749 primary NSCLC xenograft model at a Compound ([…]) and Compound (2) dose levels of 50 mg/kg and 100 mg/kg PO bid (0 and 4 h). Two cycles of whole body IR (2 Gy) were given 15 min after the first compound administration (0.25 hour). Control animals were administered vehicle PO bid (0 and 4 h). […]
(§1) In Tables 14 and 15, for example, PO bid (0, 4 h) indicates Compound (2) is administered twice (bid) at time point 0 and then 4 hours after; IR (0.25 h) qdx3 indicates radiation is administered 15 minutes (0.25 h) after the administration of Compound (2) (0 h), and once a day for 3 days (qdx3); q7dx2 indicates once a week for two weeks; qod indicates every other day twice (e.g., Day 1 and Day 3); and paclitaxel q7dx3 (−0.25 h), carboplatin q7dx3 (−0.25 h) indicates administration of paclitaxel and carboplatin 15 minutes prior to the administration of Compound (2), followed by additional administration of Compound (2) after 4 hours after the first administration of Compound (2).

[2] = Body weight in OD26749 xenograft studies; assay type: in vivo, nude mice; settings: bridging study; Compound (1) PO 100 mg/kg bid (0, 4 h), 2 Gy ([…]) qdx3; Day 1
[3] = Blood exposure in OD26749 bridging study; assay type: in vivo, nude mice; settings: nude, mouse, whole blood; 100 mg/kg PO bid (0 and 4 h) combination groups with 2 Gy whole body IR
[4] = Body weight in OE-19 xenograft studies; assay type: in vivo
Method: The OE-19 cell line xenograft model was used to evaluate the efficacy of Compounds (1) and (2) alone and in combination with IR. Two cycles of treatment were administered (Day 0 and Day 7) as performed in the OD26749 model above.

[5] = test system: ST-02-0004 primary GEJ tumor xenograft; assay: ST-02-0004 primary GEJ tumor xenograft efficacy with focused IR; assay type: in vivo
Method: The in vivo activities of Compounds (1) and (2) were compared in combination with focused beam IR in a primary gastric cancer subcutaneous xenograft model. In the ST 02 0004 model, focused IR was administered on three consecutive days alone and in combination with Compound (1) or Compound (2).
The anti-tumor activity of Compound (2) in combination with focused-beam IR and the standard of care agents, paclitaxel and carboplatin, was also evaluated in the ST 02 0004 model. Treatment with paclitaxel, carboplatin, and IR was administered once per week for three weeks alone or in combination with Compound (2).
as §1

[6] = test system: primary human tumors; assay: Primary tumor chemosensitivity assay (TCA), Cell Titer-Glo, Bliss; assay type: cell-based
Method: Primary human tumors tested in vitro may provide a better indicator of efficacy of DNA PK inhibition than immortalized cancer cell lines due to their increased heterogeneity and closer proximity to the patient tumor from which they were derived. […] Dissociated cells from mouse-passaged tumors were cultured for 6 days after combination exposure and then assessed for viability using the Cell Titer-Glo assay. The Bliss Additivity statistical model was used to determine the degree of synergy, additivity, or antagonism of each combination treatment.

[7] = Body weight in LU-01-0030 xenograft studies; assay type: in vivo, mice
Method: The in vivo efficacies of Compounds (1) and (2) were evaluated alone and in combination with three consecutive days of focused IR in the primary LU-01-0030 NSCLC subcutaneous xenograft model. The dose-dependent anti-tumor activity of Compound (2) alone and in combination with focused beam IR was evaluated in the LU-01-0030 model. […] Mice in the combination treatment groups were monitored (without treatment) for up to 90 days as some mice had no evidence of tumor burden.

[8] = test system: LU-01-0030 primary NSCLC subcutaneous xenograft; assay: LU-01-0030 primary NSCLC xenograft efficacy with focused IR; assay type: in vivo, mice
Method: The in vivo efficacies of Compounds (1) and (2) were evaluated alone and in combination with three consecutive days of focused IR in the primary LU-01-0030 NSCLC subcutaneous xenograft model. The dose-dependent anti-tumor activity of Compound (2) alone and in combination with focused beam IR was evaluated in the LU-01-0030 model.
as §1

## CNC(=O)c1ccnc2c([C@H](C)CNc3cc(-c4cnc(C)nc4)ncn3)cccc12 [Compound (1), (S)-N-methyl-8-(1-((2′-methyl-[4,5′-bipyrimidin]-6-yl)amino)propan-2-yl)quinoline-4-carboxamide]
[1]; Compound (1) single agent group, 100 mg/kg tid, twice one week apart
  time to tumor doubling (TTD): 2 to 3 days
[1]; PO 50 mg/kg bid (0, 4 h), 2 Gy IR ([…]) q7dx2
  % T/C (Day 29): 11.7%
[1]; PO 100 mg/kg bid (0, 4 h), 2 Gy IR ([…]) q7dx2
  % T/Ti (Day 29): −3.1%
[1]; PO 100 mg/kg tid (0, 3, 7 h) q7dx2, 2 Gy q7dx2 (3.25 h) whole body IR
  % T/Ti (Day 16): −75%
[1]; PO 100 mg/kg tid (0, 3, 7 h) q7dx2, no IR
  % T/C (Day 16): 74%
[1]; combination group: 100 mg/kg tid with 2 Gy whole body IR, given twice one week apart
  time to tumor doubling (TTD): 33.4 days
[2]
  Max. body wt loss (%): −2.40%
[3]
  AUC: 65800 ng·h/mL
[4]; PO 100 mg/kg bid (0, 4 h) qd7x2, 2 Gy IR qd7x2 ([…]), Day 1
  Max. body weight loss (%): −3.50%
[4]; PO 100 mg/kg bid (0, 4 h) qd7x 2, no IR, Day 8
  Max. body weight loss (%): −1.70%
[5]; Compound (1) PO 100 mg/kg bid (0, 4 h) qdx3, 2 Gy IR ([…]) focused
  % T/Ti (Day 34): −2.8%
[5]; Compound (1) PO 100 mg/kg qdx3, no IR
  % T/C (Day 34): 95.6%
[6]; Compound (1) (10× and 30× IC50) with bleomycin or radiation
  tumors additive or synergistic / tumors tested: 29/29
[6]; Compound (1) with 5-FU
  tumors with additivity / tumors tested: 5/5
[6]; Compound (1) with bleomycin
  tumors with strong synergy / tumors tested: 9/29
[6]; Compound (1) with carboplatin
  tumors with synergy or additivity / tumors tested: 5/5
[6]; Compound (1) with cisplatin
  tumors with antagonism: one tumor showed antagonism
  tumors with synergy or additivity / tumors tested: 9/10
[6]; Compound (1) with doxorubicin
  tumors with additivity / tumors tested: 1/1
[6]; Compound (1) with etoposide
  tumors with strong synergy / tumors tested: 4/4
[6]; Compound (1) with gemcitabine
  tumors with additivity / tumors tested: 2/4
  tumors with antagonism / tumors tested: 2/4
[6]; Compound (1) with paclitaxel
  tumors with additivity / tumors tested: 1/5
  tumors with antagonism / tumors tested: 1/5
[6]; Compound (1) with radiation
  tumors with strong synergy / tumors tested: 3/8
[7]; Day 24 study, PO 10 mg/kg bid (0, 4 h) qdx3, 2 Gy IR qdx3 ([…]), Day 4
  Max. body wt loss (%): −1.46%
[7]; Day 24 study, PO 25 mg/kg bid (0, 4 h) qdx3, 2 Gy IR qdx3 ([…]), Day 4
  Max. body wt loss (%): −2.03%
[7]; Day 24 study, PO 50 mg/kg bid (0, 4 h) qdx3, 2 Gy IR qdx3 ([…]), Day 4
  Max. body wt loss (%): −1.19%
[7]; Day 24 study, PO 50 mg/kg bid (0, 4 h) qodx2, 2 Gy IR qdx3 ([…]), Day 4
  Max. body wt loss (%): −1.59%
[7]; Day 30 study, PO 100 mg/kg bid (0, 4 h) qdx3, 2 Gy IR ([…]) qdx3, Day 4
  Max. body wt loss (%): −1.42%
[7]; Day 30 study, PO 100 mg/kg tid (0, 3, 7 h) qdx3, 2 Gy IR ([…]) qdx3, Day 4
  Max. body wt loss (%): −1.58%
[7]; Day 30 study, PO 100 mg/kg tid (0, 3, 7 h) qdx5, 2 Gy IR ([…]) qdx3, Day 4
  Max. body wt loss (%): −1.68%
[7]; Day 30 study, PO 100 mg/kg tid (0, 3, 7 h) qdx5, no IR, Day 6
  Max. body wt loss (%): −0.63%
[7]; Day 31 study, PO 10 mg/kg bid (0, 4 h) qdx3, 2 Gy IR ([…]), Day 3
  Max. body wt loss (%): −3.33%
[7]; Day 31 study, PO 50 mg/kg bid (0, 4 h) qdx1, 2 Gy IR ([…]), Day 1
  Max. body wt loss (%): −0.59%
[7]; Day 31 study, PO 50 mg/kg bid (0, 4 h) qdx2, 2 Gy IR ([…]), Day 1
  Max. body wt loss (%): −2.11%
[7]; Day 31 study, PO 50 mg/kg bid (0, 4 h) qdx3, 2 Gy IR ([…]), Day 3
  Max. body wt loss (%): −0.94%
[7]; Day 31 study, PO 50 mg/kg qdx3, 2 Gy IR ([…]), Day 1
  Max. body wt loss (%): −2.07%
[7]; first Day 27 study, PO 25 mg/kg bid (0, 4 h) qdx3, 2 Gy ([…]) IR qdx3, Day 2
  Max. body wt loss (%): −5.81%
[7]; first Day 27 study, PO 50 mg/kg bid (0, 4 h) qdx3, 2 Gy ([…]) IR qdx3, Day 3
  Max. body wt loss (%): −5.70%
[7]; first Day 27 study, PO 100 mg/kg bid (0, 4 h) qdx3, 2 Gy ([…]) IR qdx3, Day 3
  Max. body wt loss (%): −2.87%
[7]; first Day 27 study, PO 100 mg/kg qdx3, 2 Gy ([…]) IR qdx3, Day 2
  Max. body wt loss (%): −3.68%
[7]; second Day 27 study, PO 10 mg/kg bid (0, 4 h) qdx3, 2 Gy ([…]) IR qdx3, Day 2
  Max. body wt loss (%): −5.81%
[7]; second Day 27 study, PO 25 mg/kg bid (0, 4 h) qdx3, 2 Gy ([…]) IR qdx3, Day 3
  Max. body wt loss (%): −5.70%
[7]; second Day 27 study, PO 50 mg/kg bid (0, 4 h) qdx2, 2 Gy ([…]) IR qdx3, Day 3
  Max. body wt loss (%): −2.87%
[7]; second Day 27 study, PO 50 mg/kg bid (0, 4 h) qdx3, 2 Gy ([…]) IR qdx3, Day 2
  Max. body wt loss (%): −3.68%
[8]; PO 10 mg/kg bid (0, 4 h) qdx3, 2 Gy IR ([…])
  % T/Ti (Day 31): −5.3%
[8]; PO 10 mg/kg bid (0, 4 h) qdx3, 2 Gy IR qdx3 ([…])
  % T/Ti (Day 24): −29.8%
[8]; PO 25 mg/kg bid (0, 4 h) qdx3, 2 Gy IR qdx3 ([…])
  % T/Ti (Day 24): −75.2%
[8]; PO 50 mg/kg bid (0, 4 h) qdx1, 2 Gy IR ([…])
  % T/C (Day 31): 7.2%
[8]; PO 50 mg/kg bid (0, 4 h) qdx2, 2 Gy IR ([…])
  % T/Ti (Day 31): −1.7%
[8]; PO 50 mg/kg bid (0, 4 h) qdx3, 2 Gy IR ([…])
  % T/Ti (Day 31): −14.1%
[8]; PO 50 mg/kg bid (0, 4 h) qdx3, 2 Gy IR qdx3 ([…])
  % T/Ti (Day 24): −87.6%
[8]; PO 50 mg/kg bid (0, 4 h) qodx2, 2 Gy IR qdx3 ([…])
  % T/Ti (Day 24): −79.9%
[8]; PO 50 mg/kg qdx3, 2 Gy IR ([…])
  % T/C (Day 31): 4.5%
[8]; PO 100 mg/kg bid (0, 4 h) qdx3, 2 Gy IR ([…]) qdx3
  % T/Ti (Day 30): −85.6%
[8]; PO 100 mg/kg tid (0, 3, 7 h) qdx3, 2 Gy IR ([…]) qdx3
  % T/Ti (Day 30): −90.6%
[8]; PO 100 mg/kg tid (0, 3, 7 h) qdx5, 2 Gy IR ([…]) qdx3
  % T/Ti (Day 30): −91.6%
[8]; PO 100 mg/kg tid (0, 3, 7 h) qdx5, no IR
  % T/C (Day 30): 79.1%
[8]; first Day 27 study, PO 25 mg/kg bid (0, 4 h) qdx3, 2 Gy ([…]) IR qdx3
  % T/Ti (Day 27): −80.3%
[8]; first Day 27 study, PO 50 mg/kg bid (0, 4 h) qdx3, 2 Gy ([…]) IR qdx3
  % T/Ti (Day 27): −87.8%
[8]; first Day 27 study, PO 100 mg/kg bid (0, 4 h) qdx3, 2 Gy ([…]) IR qdx3
  % T/Ti (Day 27): −90.1%
[8]; first Day 27 study, PO 100 mg/kg qdx3, 2 Gy ([…]) IR qdx3
  % T/Ti (Day 27): −76.5%
[8]; second Day 27 study, PO 10 mg/kg bid (0, 4 h) qdx3, 2 Gy ([…]) IR qdx3
  % T/Ti (Day 27): −80.3%
[8]; second Day 27 study, PO 25 mg/kg bid (0, 4 h) qdx3, 2 Gy ([…]) IR qdx3
  % T/Ti (Day 27): −87.8%
[8]; second Day 27 study, PO 50 mg/kg bid (0, 4 h) qdx2, 2 Gy ([…]) IR qdx3
  % T/Ti (Day 27): −90.1%
[8]; second Day 27 study, PO 50 mg/kg bid (0, 4 h) qdx3, 2 Gy ([…]) IR qdx3
  % T/Ti (Day 27): −76.5%
